In one assay the test system is metabotropic glutamate receptors. The experiment in a line: Displacement of 1S,3R-ACPD-sensitive [3H]glutamate binding to rat brain cell membranes. Particulars: crude membranes of rat forebrain; 10 µM compound. The protocol: The binding of [^3H]glutamate was conducted with crude membranes of rat forebrain as described by Schoepp and True. Schoepp and True, Neuroscience Lett., 145, 100-104 (1992) and True and Schoepp, Society for Neuroscience Abstracts, 19, 470 (1993). IC50 values for the inhibition of [^3H]glutamate binding, or the percent displacement of [^3H]glutamate binding at a 10 µM concentration, of the formula I compound, is shown in Table II.
Consider `NC(Cc1ccccc1)(C(=O)O)C1CC1C(=O)O` (stereo not drawn) [Example 1, 2SR- and 2RS-2-amino-2-(1SR,2SR-2-carboxycyclopropan-1-yl)-3-phenylpropanoic acid], for which the “ACPD-Sensitive [^3H]Glutamate Binding % Displacement at 10 µM” value was “(61%)”.
Still for that read-out and setting: as for `NC(Cc1ccc(C(=O)O)cc1)(C(=O)O)C1CC1C(=O)O` (stereo not drawn) [Example 42, 2SR- and 2RS-2-amino-2-(1SR,2SR-2-carboxycyclopropan-1-yl)-3-((4-carboxy)phenyl)propanoic acid], the entry is “(39%)”; as for `NC(C(=O)O)(C1Cc2ccccc2C1)C1CC1C(=O)O` (stereo not drawn) [Example 43, 2SR- and 2RS-2-amino-2-(1SR,2SR-2-carboxycyclopropan-1-yl)-2-(indan-2-yl)ethanoic acid], “(32%)”.

The same assay, now with this note: crude membranes of rat forebrain; inhibition of [3H]glutamate binding.
`CCCCCC(N)(C(=O)O)C1CC1C(=O)O` (stereo not drawn) [Example 12, 2SR- and 2RS-2-amino-2-(1SR,2SR-2-carboxycyclopropan-1-yl)heptanoic acid] gave an IC50 of 1.8 µM.
Compound `NC(CCc1ccc(O)cc1)(C(=O)O)C1CC1C(=O)O` (stereo not drawn) [Example 31, 2SR- and 2RS-2-amino-2-(1SR,2SR-2-carboxycyclopropan-1-yl)-4-(4-hydroxyphenyl)butanoic acid] showed an IC50 of 0.3 µM.
The compound `NC(CCC1C2CCCC1CCC2)(C(=O)O)[C@H]1C[C@@H]1C(=O)O` (mixture of isomers) [Example 83, 2SR- and 2RS-2-amino-2-(1SR,2SR-2-carboxycyclopropan-1-yl)-4-(9-bicyclo[3.3.1]nonanyl)butanoic acid] showed an IC50 of 2.6 µM.
On the same count and under the same terms, to `NC(Cc1cccc2c1Oc1ccccc1C2)(C(=O)O)[C@H]1C[C@@H]1C(=O)O` (mixture of isomers) [Example 35, 2SR- and 2RS-2-amino-2-(1SR,2SR-2-carboxycyclopropan-1-yl)-3-(dibenzopyran-4-yl)propanoic acid] belongs 0.009 µM.
On the same count and under the same terms, to `CCC(N)(C(=O)O)C1CC1C(=O)O` (stereo not drawn) [Example 9, 2SR- and 2RS-2-amino-2-(1SR,2SR-2-carboxycyclopropan-1-yl)butanoic acid] belongs 2.2 µM; to `NC(CCCc1ccccc1)(C(=O)O)C1CC1C(=O)O` (stereo not drawn) [Example 3, 2SR- and 2RS-2-amino-2-(1SR,2SR-2-carboxycyclopropan-1-yl)-5-phenylpentanoic acid], 0.63 µM.
Still for that read-out and setting: to `N[C@@](CC1c2ccccc2Oc2ccccc21)(C(=O)O)[C@H]1C[C@@H]1C(=O)O` [Example 71, 2R-2 amino-2-(1S,2S-2-carboxycyclopropan-1-yl)-3-(dibenzopyran-4-yl)propanoic acid] belongs 0.53 µM; to `NC(CCc1ccc(F)cc1)(C(=O)O)[C@H]1C[C@@H]1C(=O)O` (mixture of isomers) [Example 54, 2SR- and 2RS-2-amino-2-(1SR,2SR-2-carboxycyclopropan-1-yl)-4-(4-fluorophenyl)butanoic acid], 0.023 µM.
`N[C@](Cc1cccc2c1Oc1ccccc1C2)(C(=O)O)[C@@H]1C[C@H]1C(=O)O` [Example 73, 2S-2 amino-2-(1R,2R-2-carboxycyclopropan-1-yl)-3-(dibenzopyran-4-yl)propanoic acid] registered an IC50 of 0.86 µM.
Same read-out and setting: to `NC(CCc1ccc(-c2ccccc2)cc1)(C(=O)O)[C@H]1C[C@@H]1C(=O)O` (mixture of isomers) [Example 49, 2SR- and 2RS-2-amino-2-(1SR,2SR-2-carboxycyclopropan-1-yl)-4-(4-biphenyl)butanoic acid] belongs 1.5 µM; to `NC(CCc1ccc(Cl)cc1)(C(=O)O)C1CC1C(=O)O` (stereo not drawn) [Example 25, 2SR- and 2RS-2-amino-2-(1SR, 2SR-2-carboxycyclopropan-1-yl)-4-(4-chlorophenyl)butanoic acid], 0.41 µM; to `NC(CCc1c(F)c(F)c(F)c(F)c1F)(C(=O)O)[C@H]1C[C@@H]1C(=O)O` (mixture of isomers) [Example 50, 2SR- and 2RS-2-amino-2-(1SR,2SR-2-carboxycyclopropan-1-yl)-4-(2,3,4,5,6-pentafluorophenyl)butanoic acid], 0.37 µM.
The same measure, in the same setting: as for `COc1ccccc1CCC(N)(C(=O)O)C1CC1C(=O)O` (stereo not drawn) [Example 26, 2SR- and 2RS-2-amino-2-(1SR,2SR-2-carboxycyclopropan-1-yl) -4-(2-methoxyphenyl)butanoic acid], the figure is 0.17 µM; as for `NC(CC1CCCC1)(C(=O)O)C1CC1C(=O)O` (stereo not drawn) [Example 41, 2SR- and 2RS-2-amino-2-(1SR,2SR-2-carboxycyclopropan-1-yl)-3-cyclopentylpropanoic acid], 1.4 µM.
As to `NC(CCc1cccc2ccccc12)(C(=O)O)[C@H]1C[C@@H]1C(=O)O` (mixture of isomers) [Example 18, 2SR- and 2RS-2-amino-2-(1SR,2SR-2-carboxycyclopropan-1-yl)-4-(naphth-1-yl)butanoic acid], the IC50 turned out to be 0.14 µM.
The same measure, in the same setting: to `NC(CCc1cccc(Cl)c1)(C(=O)O)[C@H]1C[C@@H]1C(=O)O` (mixture of isomers) [Example 24, 2SR- and 2RS-2-amino-2-(1SR,2SR-2-carboxycyclopropan-1-yl)-4-(3-chlorophenyl)butanoic acid] belongs 0.11 µM; to `NC(CCc1ccc(C(F)(F)F)cc1)(C(=O)O)[C@H]1C[C@@H]1C(=O)O` (mixture of isomers) [Example 56, 2SR- and 2RS-2-amino-2-(1SR,2SR-2-carboxycyclopropan-1-yl)-4-(4-(trifluoromethyl)phenyl)butanoic acid], 0.61 µM; to `NC(CCc1ccc(Cl)cc1Cl)(C(=O)O)C1CC1C(=O)O` (stereo not drawn) [Example 47, 2SR- and 2RS-2-amino-2-(1SR,2SR-2-carboxycyclopropan-1-yl)-4-(2,4-dichlorophenyl)butanoic acid], 0.22 µM.
On the same count and under the same terms, as for `CC(C)CCCC(N)(C(=O)O)[C@H]1C[C@@H]1C(=O)O` (mixture of isomers) [Example 17, 2SR- and 2RS-2-amino-2-(1SR, 2SR-2-carboxycyclopropan-1-yl)-6-methylheptanoic acid], the figure is 0.85 µM; as for `NC(CCc1cccc(C(=O)O)c1)(C(=O)O)[C@H]1C[C@@H]1C(=O)O` (mixture of isomers) [Example 79, 2SR- and 2RS-2-amino-2-(1SR,2SR-2-carboxycyclopropan-1-yl)-4-(3-carboxyphenyl)butanoic acid], 0.049 µM; as for `NC(CCc1ccc(F)cc1F)(C(=O)O)[C@H]1C[C@@H]1C(=O)O` (mixture of isomers) [Example 77, 2SR- and 2RS-2-amino-2-(1SR,2SR-2-carboxycyclopropan-1-yl)-4-(2,4-difluorophenyl)butanoic acid], 0.06 µM.
On the same count and under the same terms, as for `Cc1cccc(CCC(N)(C(=O)O)[C@H]2C[C@@H]2C(=O)O)c1` (mixture of isomers) [Example 21, 2SR- and 2RS-2-amino-2-(1SR,2SR-2-carboxycyclopropan-1-yl)-4-(3-methylphenyl)butanoic acid], the figure is 0.038 µM; as for `NC(CCc1cccs1)(C(=O)O)[C@H]1C[C@@H]1C(=O)O` (mixture of isomers) [Example 58, 2SR- and 2RS-2-amino-2-(1SR,2SR-2-carboxycyclopropan-1-yl)-4-(2-thienyl)butanoic acid], 0.58 µM; as for `CC(N)(C(=O)O)C1CC1C(=O)O` (stereo not drawn) [Example 8, 2SR- and 2RS-2-amino-2-(1SR,2SR-2-carboxycyclopropan-1-yl)propanoic acid, reference compound], 6.2 µM.

For orientation: IC50 means the concentration that inhibits the measured activity by half. The low end stands for greater potency, the high end for weaker potency.
